Consider one molecule from patent US20060037100A1, “Fungal resistant transgenic pepper plants and their production method” (priority 2004, published 2006).

The test has as its system pepper cells. Kind of test: Hygromycin sensitivity of pepper cells (growth of hypocotyl explants on SIM medium). It is filed as cell-based, Capsicum annuum L. (pepper). As to the method: The sensitivity of untransformed wild type (WT) and transformed (T) hypocotyl explants to hygromycin B was examined by using shoot induction medium containing 0, 5, 10, 20, 50 mg/l of hygromycin B (A). Fresh weight (mg) of hypocotyl explants growing on the medium containing hygromycin B (B).
Selection of transgenic cells was preformed in medium containing 20 mg/l hygromycin B in all experiments.

`CN[C@H]1C[C@@H](N)[C@H](O)[C@@H](O[C@@H]2O[C@H](CO)[C@H](O)[C@@H]3OC4(O[C@H]23)O[C@H]([C@@H](N)CO)[C@H](O)[C@H](O)[C@H]4O)[C@@H]1O` (some centres unmarked) [hygromycin B]: the “effect on the growth of pepper cells” value (hygromycin B 5 mg/l in SIM medium, after 14 days of culture) is reported as “severe inhibitory effect”. Further, the “hygromycin B concentration up to which transgenic cells showed resistance” value (transgenic (transformed) pepper cells on SIM medium) is given as “up to 50 mg/l”.
